Test results: patent US20150342899A1 (NOVEN PHARMACEUTICALS, INC., priority 2012, published 2015)

Assay: in vitro flux study with human cadaver skin using a Franz cell apparatus
Type: in vitro ADME
Experimental: An in vitro flux study was conducted with human cadaver skin using a Franz cell apparatus to determine the flux of each drug from the matrix over a 24-hour period.

SMILES | flux of drug from the matrix (transdermal system from polymer matrix of Example 1, about 1.05 mg/cm^2 amphetamine and about 0.28 mg/cm^2 clonidine, 24-hour period, FIG. 1, one sample) | pharmacokinetic (delivery) profile
CC(N)Cc1ccccc1 (stereo not drawn) [amphetamine, alpha-methylphenethylamine] | sufficient to achieve a therapeutic effect | –
Clc1cccc(Cl)c1N=C1NCCN1 [clonidine] | – | delivered over an extended period of time
